Assay results: ChEMBL document CHEMBL3233003, “Chromodomain antagonists that target the polycomb-group methyllysine reader protein chromobox homolog 7 (CBX7)” (J Med Chem, 2014)
The source made the active and inactive calls. The calls are words filed in the database; no cut-off is given here. Starred links: 1 amine or outer side, 2 acyl side, 3 side chain; linkers in the order of their positions; H or OH if unused. Non-standard residues stand in square brackets, D forms with d. Residues, ends and D or L forms follow the SMILES beside them. *: point of attachment. Benzoyl(4-CO2Me) = COC(=O)c1ccc(C(=O)*)cc1; Lys(Me3) = C[N+](C)(C)CCCC[C@H](N)C(=O)O; Benzoyl(4-Br) = O=C(c1ccc(Br)cc1)*; Ethylenediamine = C(CN[*:2])N[*:1]; Gly(cPent) = N[C@H](C(=O)O)C1CCCC1; X6 = O=C(O)c1ccc(S(=O)(=O)*)cc1; Tle = CC(C)(C)[C@H](N)C(=O)O; Tos = Cc1ccc(S(=O)(=O)*)cc1; X2 = O=C(c1c[nH]c2ccccc12)*; X5 = c1ccc2[nH]c(N*)nc2c1; X9 = O[C@H]1CCCC[C@@H]1N*; NHCH(CH2OH)2 = OCC(CO)N*; Bz = O=C(c1ccccc1)*

Tests used:
[1] = molecular target: T1, Chromobox protein homolog 8 (Homo sapiens, UniProt Q9HC52); assay: Binding affinity to CBX8 (unknown origin) by isothermal titration calorimetry assay
T1 sequence (Q9HC52 whole entry): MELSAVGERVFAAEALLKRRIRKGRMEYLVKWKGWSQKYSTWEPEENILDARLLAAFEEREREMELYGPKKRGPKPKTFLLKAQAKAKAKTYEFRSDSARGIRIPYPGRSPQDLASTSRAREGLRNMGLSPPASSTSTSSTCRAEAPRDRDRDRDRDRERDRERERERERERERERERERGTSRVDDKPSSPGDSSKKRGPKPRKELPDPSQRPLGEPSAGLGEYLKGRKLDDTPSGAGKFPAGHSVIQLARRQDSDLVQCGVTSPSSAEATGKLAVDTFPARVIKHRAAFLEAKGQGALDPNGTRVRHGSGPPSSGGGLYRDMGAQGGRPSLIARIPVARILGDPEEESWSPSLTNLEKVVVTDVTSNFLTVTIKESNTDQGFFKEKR

[2] = molecular target: T2, Chromobox protein homolog 7 (Homo sapiens, UniProt O95931); assay: Binding affinity to CBX7 (unknown origin) by isothermal titration calorimetry assay
T2 sequence (O95931 whole entry): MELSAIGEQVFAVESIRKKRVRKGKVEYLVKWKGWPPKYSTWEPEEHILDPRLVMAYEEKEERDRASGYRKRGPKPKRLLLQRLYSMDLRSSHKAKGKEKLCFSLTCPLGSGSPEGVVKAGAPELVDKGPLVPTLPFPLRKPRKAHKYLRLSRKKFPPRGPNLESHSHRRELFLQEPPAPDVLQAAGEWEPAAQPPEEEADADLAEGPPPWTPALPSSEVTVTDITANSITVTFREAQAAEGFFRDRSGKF

[3] = molecular target: T2, Chromobox protein homolog 7; assay: (§1) Displacement of FITC-labeled H3K27me3 from CBX7 (unknown origin) after 15 mins by fluorescence polarization assay
[4] = molecular target: Chromobox protein homolog 1 (Homo sapiens, UniProt P83916); assay: Binding affinity to CBX1 (unknown origin) by isothermal titration calorimetry assay
Sequence of Chromobox protein homolog 1 (P83916 whole entry): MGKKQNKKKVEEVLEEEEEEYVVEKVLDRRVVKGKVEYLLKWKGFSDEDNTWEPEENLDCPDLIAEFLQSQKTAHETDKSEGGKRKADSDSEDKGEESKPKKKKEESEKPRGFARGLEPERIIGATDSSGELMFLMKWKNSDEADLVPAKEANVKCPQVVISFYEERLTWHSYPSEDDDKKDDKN

[5] = molecular target: T3, E3 SUMO-protein ligase CBX4 (Homo sapiens, UniProt O00257); assay: Binding affinity to CBX4 (unknown origin) by isothermal titration calorimetry assay
T3 sequence (O00257 whole entry): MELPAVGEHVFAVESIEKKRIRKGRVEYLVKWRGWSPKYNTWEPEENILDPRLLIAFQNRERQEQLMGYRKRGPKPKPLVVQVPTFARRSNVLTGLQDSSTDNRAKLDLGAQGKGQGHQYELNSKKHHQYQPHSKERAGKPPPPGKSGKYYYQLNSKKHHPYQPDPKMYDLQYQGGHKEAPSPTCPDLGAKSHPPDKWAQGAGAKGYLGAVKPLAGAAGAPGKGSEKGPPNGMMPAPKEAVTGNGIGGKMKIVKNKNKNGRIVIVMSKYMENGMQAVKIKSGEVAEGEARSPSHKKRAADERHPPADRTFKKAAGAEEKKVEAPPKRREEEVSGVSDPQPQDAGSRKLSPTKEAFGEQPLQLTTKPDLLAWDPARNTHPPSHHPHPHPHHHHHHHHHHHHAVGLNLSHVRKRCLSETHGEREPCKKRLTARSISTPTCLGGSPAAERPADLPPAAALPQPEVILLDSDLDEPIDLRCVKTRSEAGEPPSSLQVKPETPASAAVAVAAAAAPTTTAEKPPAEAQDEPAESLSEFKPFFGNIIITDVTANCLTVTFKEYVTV

[6] = molecular target: T4, Chromobox protein homolog 7 (Homo sapiens) (UniProt O95931); assay: as §1
T4 sequence (whole entry): T2 sequence (O95931 whole entry)

| Compound | Kd [1] | Kd [2] | IC50 [3] | further results |
| --- | --- | --- | --- | --- |
| C[C@H](NC(=O)Cc1ccccc1)C(=O)N[C@H](C(=O)N[C@@H](CCCC[N+](C)(C)C)C(=O)NC(CO)CO)C1CCCC1 | 15 µM | 4.1 µM |  |  |
| CC(C)C[C@H](NC(=O)[C@H](C)NC(=O)[C@H](Cc1ccccc1)NC(=O)c1ccc(Br)cc1)C(=O)N[C@@H](CCCC[N+](C)(C)C)C(=O)N[C@@H](CO)C(N)=O ({Benzoyl(4-Br)}-FAL[Lys(Me3)]S-NH2) | 1.5 µM | 0.28 µM | 4.6 µM |  |
| C[C@H](NC(=O)[C@H](Cc1ccccc1)NC(=O)c1ccc(Br)cc1)C(=O)N[C@H](C(=O)N[C@@H](CCCC[N+](C)(C)C)C(=O)NCCN)C1CCCC1 ({Benzoyl(4-Br)}-FA[Gly(cPent)][Lys(Me3)]-Ethylenediamine) | 0.48 µM | 0.22 µM |  |  |
| CC(=O)N[C@@H](Cc1ccccc1)C(=O)N[C@@H](C)C(=O)N[C@@H](CC(C)C)C(=O)N[C@@H](CCCC[N+](C)(C)C)C(=O)N[C@@H](CO)C(N)=O | 14.2 µM | 2 µM | 11 µM | Kd [4]: 43 µM; Kd [5]: 3.7 µM |
| COC(=O)c1ccc(C(=O)N[C@@H](Cc2ccccc2)C(=O)N[C@@H](C)C(=O)N[C@H](C(=O)N[C@@H](CCCC[N+](C)(C)C)C(=O)NC(CO)CO)C2CCCC2)cc1 ({Benzoyl(4-CO2Me)}-FA[Gly(cPent)][Lys(Me3)]-{NHCH(CH2OH)2}) | 1.89 µM | 0.2 µM |  | Kd [4]: > 500 µM; Kd [5]: 0.29 µM |
| CC(=O)N[C@@H](Cc1ccccc1)C(=O)N[C@@H](C)C(=O)N[C@@H](Cc1ccc(O)cc1)C(=O)N[C@@H](CCCC[N+](C)(C)C)C(=O)N[C@@H](CO)C(N)=O (Ac-FAY[Lys(Me3)]S-NH2) | 12.3 µM |  |  |  |
| CC(C)C[C@H](NC(=O)[C@H](C)NC(=O)[C@H](Cc1ccccc1)NS(=O)(=O)c1ccc(C(=O)O)cc1)C(=O)N[C@@H](CCCC[N+](C)(C)C)C(=O)N[C@@H](CO)C(N)=O (X6-FAL[Lys(Me3)]S-NH2) |  |  | 6.7 µM |  |
| CC(C)C[C@H](NC(=O)[C@H](C)NC(=O)c1c[nH]c2ccccc12)C(=O)N[C@@H](CCCC[N+](C)(C)C)C(=O)N[C@@H](CO)C(N)=O (X2-AL[Lys(Me3)]S-NH2) |  |  | 67 µM |  |
| CC(=O)N[C@@H](Cc1ccccc1)C(=O)N[C@@H](C)C(=O)N[C@@H](CC(C)C)C(=O)N[C@@H](CCCC[N+](C)(C)C)C(=O)Nc1nc2ccccc2[nH]1 (Ac-FAL[Lys(Me3)]-X5) |  |  | 35 µM |  |
| CC(=O)N[C@@H](Cc1ccccc1)C(=O)N[C@@H](C)C(=O)N[C@H](C(=O)N[C@@H](CCCC[N+](C)(C)C)C(=O)N[C@@H](CO)C(N)=O)C(C)(C)C (Ac-FA[Tle][Lys(Me3)]S-NH2) |  |  | 67 µM |  |
| CC(=O)N[C@@H](Cc1ccccc1)C(=O)N[C@@H](CO)C(=O)N[C@@H](CC(C)C)C(=O)N[C@@H](CCCC[N+](C)(C)C)C(=O)N[C@@H](CO)C(N)=O (Ac-FSL[Lys(Me3)]S-NH2) |  |  | 53 µM |  |
| CC(=O)N[C@@H](Cc1ccccc1)C(=O)N[C@H](C(=O)N[C@@H](CC(C)C)C(=O)N[C@@H](CCCC[N+](C)(C)C)C(=O)N[C@@H](CO)C(N)=O)C(C)C (Ac-FVL[Lys(Me3)]S-NH2) |  |  | > 500 µM |  |
| COC(=O)c1ccc(C(=O)N[C@@H](Cc2ccccc2)C(=O)N[C@@H](C)C(=O)N[C@H](C(=O)N[C@@H](CCCC[N+](C)(C)C)C(=O)N[C@@H](CO)C(N)=O)C2CCCC2)cc1 ({Benzoyl(4-CO2Me)}-FA[Gly(cPent)][Lys(Me3)]S-NH2) | 1.78 µM | 0.2 µM |  |  |
| CC(=O)N[C@@H](Cc1ccc(O)cc1)C(=O)N[C@@H](C)C(=O)N[C@@H](CC(C)C)C(=O)N[C@@H](CCCC[N+](C)(C)C)C(=O)N[C@@H](CO)C(N)=O (Ac-YAL[Lys(Me3)]S-NH2) |  |  | 8.6 µM |  |
| CC(C)C[C@H](NC(=O)[C@H](C)NC(=O)CNC(=O)c1ccccc1)C(=O)N[C@@H](CCCC[N+](C)(C)C)C(=O)N[C@@H](CO)C(N)=O (Bz-GAL[Lys(Me3)]S-NH2) |  |  | 58 µM |  |
| CC(=O)N[C@@H](Cc1ccccc1)C(=O)N[C@@H](C)C(=O)N[C@@H](CC(C)C)C(=O)N[C@@H](CCCC[N+](C)(C)C)C(=O)N[C@H](CO)C(N)=O | 15 µM | 5.4 µM | 9 µM |  |
| CC(=O)N[C@@H](Cc1ccccc1)C(=O)N[C@@H](C)C(=O)N[C@@H](CCCCN)C(=O)N[C@@H](CCCC[N+](C)(C)C)C(=O)N[C@@H](CO)C(N)=O (Ac-FAK[Lys(Me3)]S-NH2) |  |  | 10.1 µM |  |
| Ac-FALKS-NH2 |  |  |  | inhibition [6]: inactive |
| Cc1ccc(S(=O)(=O)NCC(=O)N[C@@H](C)C(=O)N[C@@H](CC(C)C)C(=O)N[C@@H](CCCC[N+](C)(C)C)C(=O)N[C@@H](CO)C(N)=O)cc1 (Tos-GAL[Lys(Me3)]S-NH2) |  |  | 34 µM |  |
| CC(=O)N[C@@H](Cc1ccccc1)C(=O)N[C@@H](C)C(=O)N[C@@H](CC(C)C)C(=O)N[C@@H](CCCC[N+](C)(C)C)C(=O)N[C@H]1CCCC[C@@H]1O (Ac-FAL[Lys(Me3)]-X9) |  |  | > 250 µM |  |
